Structures are written as SMILES.

The test system of data set [1] is Vero cells. The experiment in a line: Cell death seen in the HSV inactivation plaque assays. The class given is cell-based, African green monkey. Particulars: concentration 0.005%. On the procedure:
HSV G and F strains were diluted to 200 pfu/ml with 5% MEM, respectively. […] Equal volumes of diluted virus and drugs were mixed and incubated at 37° C. water-bath for 1 h. One ml of the mixture was then used to infect confluent Vero cells in 6-well plates at 37° C. for 1 h. After infection, viral inoculum was removed and the cells washed with PBS. The cells were subsequently overlaid with 1.5 ml of 0.5% methylcellullose (diluted from 1% stock with 2×culture medium) for plaque assay.

For the next data set, the system named is HSV-1 (strain F). The experiment in a line: Inactivation of HSV-1 by pre-mixing with drug, plaque reduction assay. The class given is cell-based, herpes simplex virus. Particulars: concentration 0.005%, pre-mixing for 1 h. How it is done:
(§1) HSV strains G (HSV-2) and F (HSV-1) were used in the experiments. A HSV susceptible cell line, Vero cells (African green monkey kidney cell), was used in the virus yield reduction assays. The culture medium for Vero cells was 5% minimum essential medium (MEM; GIBCO/BRL) supplemented with 5% fetal bovine serum, 100 U/ml penicillin and 100 μg/ml streptomycin).
(§2) Confluent cells were washed with PBS and subsequently infected with HSV for 1 h at 37° C. After viral inoculum was removed, the infected cells were washed with PBS and overlaid with 0.5% methylcellulose in culture medium. Cells were incubated at 37° C. for 2 days for HSV-2 infection and 3 days for HSV-1. When plaque size was adequate, cells were fixed with 10% formalin for […]. Monolayers were subsequently stained with 0.5% crystal violet for 10 min, and dye was removed by washing with tap water.
(§3) All data were generated from duplicate or triplicate experiments. Effects of compounds at varying concentrations were expressed as % of control (the mean plaque counts in drug treated wells/the mean plaque counts in control wells).
(§4) HSV G and F strains were diluted to 200 pfu/ml with 5% MEM, respectively. […] Equal volumes of diluted virus and drugs were mixed and incubated at 37° C. water-bath for 1 h. One ml of the mixture was then used to infect confluent Vero cells in 6-well plates at 37° C. for 1 h. […]

Data set [2] relates to HSV-2 thymidine kinase mutant Delta 333. The experiment in a line: Inactivation of drug-resistant HSV-2 TK mutant, plaque reduction assay. As to conditions: 37° C. for 1 h, concentration not given. The class given is cell-based, herpes simplex virus.
Another data set relates to HSV-2 (strain G). The experiment in a line: Inactivation of HSV-2 by pre-mixing with drug, plaque reduction assay. The format is cell-based, herpes simplex virus. As to conditions: concentration 0.005%, pre-mixing for 1 h. On the procedure: as §1, §2, §3, §4
The test system of data set [3] is Vero cells. Briefly: Cytotoxicity, neutral red uptake assay. The class given is cell-based, African green monkey. As to conditions: after 2 days' incubation, data not shown. How it is done: Culture medium was removed from confluent Vero cells in 24-well plates. The cells were then washed once with PBS. […] Cells were incubated at 37° C. for 1 h, 6 h, 2 and 3 days. At each time point, the medium was removed and cells washed with PBS. 500 μl of 0.01% neutral red (in PBS) was added to each well, and the samples were incubated at 37° C. for 30 min. The dye was then removed and the cells washed×2 with 1 ml PBS per well. The dye was extracted by addition of 500 μl of 50% ethanol/1% glacial acetic acid in PBS to each well and incubated at room temperature for 15 min with gentle shaking at 120-150 rpm. 200 μl extracted dye from each well was put into 96-well plate and the absorbance at 550 nm was read on an ELISA reader.

Compound `CCCCCCCCCCCCOS(=O)(=O)[O-].[Na+]` [SDS] registered a cell death in the data set with Vero cells [1] of 50%. Moreover, the “inactivation of HSV-1” value in the data set with HSV-1 (strain F) is “effective”. For the same compound, the “inactivation of delta 333” value in data set [2] is reported as “capable of inactivating”. In the data set on HSV-2 (strain G), the “inactivation of HSV-2” value is given as “effective”. Besides, the “CC50 (cytotoxic concentration giving 50% of cell death)” value with Vero cells [3] was “approximately 0.005%”.

Values taken from patent US20030176483A1, “Topical synergistic microbicide” (priority 2002, published 2003).
